Read-outs that look alike come from different tables or passages of the source.
Assays:
MOLM-13 = assay: Resazurin reduction cell viability assay; format: cell-based, human
Procedure: (§1) Solid tumor cell lines were seeded in 100 μl medium into 96-well plates at an appropriate cell number determined by a cell dilution assay (Cal51–2000 cells/well; Colo205, MCF10A and 184A1–3000 cells/well and MDA-MB-468, HCC1954–4000 cells/well). AML suspension cells were seeded in 96-well plates at approximately 3000 cells per well. Cells were incubated overnight at 37°C, 5% CO2. The following day, 100 μl fresh medium containing increasing concentrations of appropriate compound was added and the cells were incubated for up to 72 h at 37°C, 5% CO2. For pulse treatment of solid (adherent) tumor cell lines, medium was aspirated and replaced with fresh drug-free medium. For pulse treatment of suspension lines, plates were centrifuged at 478 xg for 5 min at the end of the incubation period with compound, medium containing compound was carefully aspirated and replaced with fresh compound-free medium. A total of 72 h after the start of treatment, 20 μl of a 10X stock of resazurin sodium salt (Sigma-Aldrich, Dorset, UK) prepared in medium was added to the cells and incubated for up to 3 h. […] was measured on the Wallac Victor plate reader (Cambridge, UK) at 544–595 nm. IC50/70/90 calculations were determined in XLFit.

OCI-AML2 = assay: Resazurin reduction cell viability assay; format: cell-based, human
Procedure: as §1

THP-1 = assay: Resazurin reduction cell viability assay; format: cell-based, human
Procedure: as §1

PL21 = assay: Resazurin reduction cell viability assay; format: cell-based, human
Procedure: as §1

HEL = assay: Resazurin reduction cell viability assay; format: cell-based, human
Procedure: as §1

KG-1 = assay: Resazurin reduction cell viability assay; format: cell-based, human
Procedure: as §1

MDA-MB-231 = assay: Resazurin reduction cell viability assay; format: cell-based, human
Procedure: as §1

OCI-AML5 = assay: Resazurin reduction cell viability assay; format: cell-based, human
Procedure: as §1

A549 = assay: Resazurin reduction cell viability assay; format: cell-based, human
Procedure: as §1

CDK2/cyclin E = molecular target: T1, CDK2/cyclin E (Homo sapiens, UniProt P24941); assay: Kinase assay with recombinant CDK/cyclins (Cyclacel); format: biochemical
T1 construct: made in house
Procedure: (§2) Kinase assays for CDK2, CDK4, CDK7 and CDK9 were carried out as described previously using recombinant CDK/cyclins generated at Cyclacel Ltd, Dundee, UK [29, 34, 35].

CDK7/cyclin H1/MAT1 = molecular target: T2, CDK7/cyclin H1/MAT1 (Homo sapiens, UniProt P50613); assay: as above; format: biochemical
T2 construct: purchased Carna Biosciences
Procedure: as §2

CDK4/cyclin D3 = molecular target: T3, CDK4/cyclin D3 (Homo sapiens, UniProt P11802); assay: as above; format: biochemical
T3 construct: made in house
Procedure: as §2

DYRK1A = molecular target: T4, DYRK1A (Homo sapiens, UniProt Q13627); assay: Carna kinase panel screen; format: biochemical; details: read-out: % Inhibition ± SD
T4 construct: purchased Carna Biosciences
Procedure: (§3) IC50 values were determined from a 10-point concentration curve using ATP concentrations approximating Km values. […] The percentage inhibition of each test solution was calculated, which allowed the IC50 value to be determined from concentration versus percentage inhibition curves by fitting to a four parameter logistic curve.

PKCi = molecular target: T5, PKCi (Homo sapiens, UniProt P41743); assay: Carna kinase panel screen; format: biochemical; details: read-out: % Inhibition ± SD
T5 construct: purchased Carna Biosciences
Procedure: as §3

PDGFRa = molecular target: T6, PDGFRa (Homo sapiens, UniProt P16234); assay: Carna kinase panel screen; format: biochemical; details: read-out: % Inhibition ± SD
T6 construct: purchased Carna Biosciences
Procedure: as §3

BMPR1A = molecular target: T7, BMPR1A (Homo sapiens, UniProt P36894); assay: Carna kinase panel screen; format: biochemical; details: read-out: % Inhibition ± SD
T7 construct: purchased Carna Biosciences
Procedure: as §3

FLT3 = molecular target: T8, FLT3 (Homo sapiens, UniProt P36888); assay: Carna kinase panel screen; format: biochemical; details: read-out: % Inhibition ± SD
T8 construct: purchased Carna Biosciences
Procedure: as §3

SRC = molecular target: T9, SRC (Homo sapiens, UniProt P12931); assay: Carna kinase panel screen; format: biochemical; details: read-out: % Inhibition ± SD
T9 construct: purchased Carna Biosciences
Procedure: as §3

PDGFRb = molecular target: T10, PDGFRb (Homo sapiens, UniProt P09619); assay: Carna kinase panel screen; format: biochemical; details: read-out: % Inhibition ± SD
T10 construct: purchased Carna Biosciences
Procedure: as §3

BMX = molecular target: T11, BMX (Homo sapiens, UniProt P51813); assay: Carna kinase panel screen; format: biochemical; details: read-out: % Inhibition ± SD
T11 construct: purchased Carna Biosciences
Procedure: as §3

NEK2 = molecular target: T12, NEK2 (Homo sapiens, UniProt P51955); assay: Carna kinase panel screen; format: biochemical; details: read-out: % Inhibition ± SD
T12 construct: purchased Carna Biosciences
Procedure: as §3

PKCe = molecular target: T13, PKCe (Homo sapiens, UniProt Q02156); assay: Carna kinase panel screen; format: biochemical; details: read-out: % Inhibition ± SD
T13 construct: purchased Carna Biosciences
Procedure: as §3

CK2a1 = molecular target: T14, CK2a1 (Homo sapiens, UniProt P68400); assay: Carna kinase panel screen; format: biochemical; details: read-out: % Inhibition ± SD
T14 construct: purchased Carna Biosciences
Procedure: as §3

MAPKAPK5 = molecular target: T15, MAPKAPK5 (Homo sapiens, UniProt Q8IW41); assay: Carna kinase panel screen; format: biochemical; details: read-out: % Inhibition ± SD
T15 construct: purchased Carna Biosciences
Procedure: as §3

panel of 256 kinases = assay: Carna 256-kinase selectivity panel, overall; format: biochemical; details: 1 μM
Procedure: as §3

MCL1 = system: MCL1; parameters: method as in earlier work; details: patient PBMCs; recommended phase 2 dose; cited from earlier work

T12 sequence (P51955 whole entry): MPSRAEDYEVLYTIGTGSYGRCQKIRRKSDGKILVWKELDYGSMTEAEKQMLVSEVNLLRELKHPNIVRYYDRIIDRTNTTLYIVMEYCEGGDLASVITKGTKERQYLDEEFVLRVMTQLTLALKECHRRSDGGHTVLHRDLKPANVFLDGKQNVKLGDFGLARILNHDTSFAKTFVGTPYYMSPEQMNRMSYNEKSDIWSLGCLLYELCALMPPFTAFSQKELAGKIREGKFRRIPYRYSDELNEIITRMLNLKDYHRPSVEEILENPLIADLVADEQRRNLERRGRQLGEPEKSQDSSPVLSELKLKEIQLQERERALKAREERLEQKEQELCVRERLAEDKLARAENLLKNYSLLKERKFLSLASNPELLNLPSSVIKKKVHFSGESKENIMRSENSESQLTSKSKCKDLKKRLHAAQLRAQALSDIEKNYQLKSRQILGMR
T5 sequence (P41743 whole entry): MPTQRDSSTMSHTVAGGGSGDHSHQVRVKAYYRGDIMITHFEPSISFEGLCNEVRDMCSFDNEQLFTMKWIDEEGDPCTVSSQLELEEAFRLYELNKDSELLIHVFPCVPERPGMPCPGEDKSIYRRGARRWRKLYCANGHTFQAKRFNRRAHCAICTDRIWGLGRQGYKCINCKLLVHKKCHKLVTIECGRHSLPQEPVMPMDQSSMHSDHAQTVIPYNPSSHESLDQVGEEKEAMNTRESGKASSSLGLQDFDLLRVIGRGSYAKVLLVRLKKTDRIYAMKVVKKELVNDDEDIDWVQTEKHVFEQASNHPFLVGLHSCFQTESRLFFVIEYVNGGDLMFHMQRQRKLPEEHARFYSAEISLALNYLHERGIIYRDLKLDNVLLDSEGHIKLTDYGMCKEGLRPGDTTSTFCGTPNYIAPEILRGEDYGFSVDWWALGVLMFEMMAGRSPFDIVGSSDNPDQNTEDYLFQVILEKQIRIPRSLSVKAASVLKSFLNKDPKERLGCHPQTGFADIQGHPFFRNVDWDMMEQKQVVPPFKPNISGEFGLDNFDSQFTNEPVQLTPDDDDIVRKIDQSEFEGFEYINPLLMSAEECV
T6 sequence (P16234 24-1089): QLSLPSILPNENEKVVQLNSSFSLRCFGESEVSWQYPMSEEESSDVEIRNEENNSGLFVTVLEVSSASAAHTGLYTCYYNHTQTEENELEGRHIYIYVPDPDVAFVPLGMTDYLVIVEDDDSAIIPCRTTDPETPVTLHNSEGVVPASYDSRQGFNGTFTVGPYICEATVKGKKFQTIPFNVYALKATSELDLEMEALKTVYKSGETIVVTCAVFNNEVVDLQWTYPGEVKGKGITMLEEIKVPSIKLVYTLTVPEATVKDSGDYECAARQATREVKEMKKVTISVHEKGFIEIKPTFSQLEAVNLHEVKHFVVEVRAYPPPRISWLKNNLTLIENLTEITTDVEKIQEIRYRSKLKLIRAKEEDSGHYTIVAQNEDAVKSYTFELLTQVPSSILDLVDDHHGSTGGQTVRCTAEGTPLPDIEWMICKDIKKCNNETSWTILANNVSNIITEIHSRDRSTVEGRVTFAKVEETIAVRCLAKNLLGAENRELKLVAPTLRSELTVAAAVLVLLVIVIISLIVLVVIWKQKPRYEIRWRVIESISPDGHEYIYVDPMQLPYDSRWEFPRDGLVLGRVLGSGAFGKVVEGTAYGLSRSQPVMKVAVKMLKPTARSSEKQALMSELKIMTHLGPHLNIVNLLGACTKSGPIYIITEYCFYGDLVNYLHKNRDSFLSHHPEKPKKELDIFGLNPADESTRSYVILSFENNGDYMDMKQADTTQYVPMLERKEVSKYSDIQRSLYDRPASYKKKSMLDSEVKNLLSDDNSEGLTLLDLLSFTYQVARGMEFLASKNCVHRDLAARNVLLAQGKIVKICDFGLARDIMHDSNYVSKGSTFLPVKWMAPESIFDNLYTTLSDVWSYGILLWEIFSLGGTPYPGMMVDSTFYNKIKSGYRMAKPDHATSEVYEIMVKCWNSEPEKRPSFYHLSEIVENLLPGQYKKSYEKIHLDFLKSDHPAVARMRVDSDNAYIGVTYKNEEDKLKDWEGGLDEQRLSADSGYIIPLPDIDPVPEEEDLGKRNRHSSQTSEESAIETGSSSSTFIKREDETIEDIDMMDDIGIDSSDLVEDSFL
T7 sequence (P36894 24-532): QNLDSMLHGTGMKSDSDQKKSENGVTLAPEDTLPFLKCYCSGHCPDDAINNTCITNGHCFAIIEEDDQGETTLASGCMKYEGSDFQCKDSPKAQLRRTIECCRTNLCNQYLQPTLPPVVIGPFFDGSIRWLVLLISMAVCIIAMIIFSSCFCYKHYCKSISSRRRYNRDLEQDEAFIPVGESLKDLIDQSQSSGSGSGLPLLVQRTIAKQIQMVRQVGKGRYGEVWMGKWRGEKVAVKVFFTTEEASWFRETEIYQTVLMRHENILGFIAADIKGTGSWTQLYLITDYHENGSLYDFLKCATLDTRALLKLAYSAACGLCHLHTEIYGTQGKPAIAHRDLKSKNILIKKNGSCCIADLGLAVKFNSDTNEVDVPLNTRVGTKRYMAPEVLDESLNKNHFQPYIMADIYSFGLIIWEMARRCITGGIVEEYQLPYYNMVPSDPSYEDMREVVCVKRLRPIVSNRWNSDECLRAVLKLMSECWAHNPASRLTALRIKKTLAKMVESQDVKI
T9 sequence (P12931 whole entry): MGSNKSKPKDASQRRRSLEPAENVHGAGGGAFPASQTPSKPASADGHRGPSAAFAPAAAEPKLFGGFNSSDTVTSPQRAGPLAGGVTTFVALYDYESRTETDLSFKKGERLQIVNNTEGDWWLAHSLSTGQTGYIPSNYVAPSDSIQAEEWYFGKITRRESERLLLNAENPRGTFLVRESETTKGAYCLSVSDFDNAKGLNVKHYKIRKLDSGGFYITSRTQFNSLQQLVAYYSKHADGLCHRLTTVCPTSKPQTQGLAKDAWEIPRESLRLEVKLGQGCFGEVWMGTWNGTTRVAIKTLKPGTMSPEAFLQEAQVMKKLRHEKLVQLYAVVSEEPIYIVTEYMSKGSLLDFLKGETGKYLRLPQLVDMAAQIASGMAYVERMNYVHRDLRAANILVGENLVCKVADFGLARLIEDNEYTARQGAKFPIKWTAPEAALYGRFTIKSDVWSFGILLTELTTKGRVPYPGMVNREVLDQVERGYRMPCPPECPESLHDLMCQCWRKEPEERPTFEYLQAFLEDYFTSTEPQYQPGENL
T2 sequence (P50613 whole entry): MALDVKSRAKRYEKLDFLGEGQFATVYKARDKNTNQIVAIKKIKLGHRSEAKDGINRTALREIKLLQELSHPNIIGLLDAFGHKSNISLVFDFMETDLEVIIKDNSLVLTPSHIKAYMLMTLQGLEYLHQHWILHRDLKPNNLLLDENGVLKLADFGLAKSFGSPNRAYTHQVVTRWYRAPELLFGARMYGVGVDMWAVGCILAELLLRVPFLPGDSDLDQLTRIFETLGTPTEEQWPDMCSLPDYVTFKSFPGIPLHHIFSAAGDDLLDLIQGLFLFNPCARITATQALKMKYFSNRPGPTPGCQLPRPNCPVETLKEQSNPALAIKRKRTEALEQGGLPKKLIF
T2 sequence (P51946 whole entry partner): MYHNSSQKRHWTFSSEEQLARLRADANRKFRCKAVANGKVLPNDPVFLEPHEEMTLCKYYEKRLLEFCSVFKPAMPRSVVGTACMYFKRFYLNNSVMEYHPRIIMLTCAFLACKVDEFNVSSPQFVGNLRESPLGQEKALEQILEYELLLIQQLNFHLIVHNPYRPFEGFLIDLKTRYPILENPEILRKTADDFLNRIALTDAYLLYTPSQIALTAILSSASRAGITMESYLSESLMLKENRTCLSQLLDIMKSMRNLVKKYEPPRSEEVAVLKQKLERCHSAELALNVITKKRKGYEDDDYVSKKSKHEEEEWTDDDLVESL
T2 sequence (P51948 whole entry partner): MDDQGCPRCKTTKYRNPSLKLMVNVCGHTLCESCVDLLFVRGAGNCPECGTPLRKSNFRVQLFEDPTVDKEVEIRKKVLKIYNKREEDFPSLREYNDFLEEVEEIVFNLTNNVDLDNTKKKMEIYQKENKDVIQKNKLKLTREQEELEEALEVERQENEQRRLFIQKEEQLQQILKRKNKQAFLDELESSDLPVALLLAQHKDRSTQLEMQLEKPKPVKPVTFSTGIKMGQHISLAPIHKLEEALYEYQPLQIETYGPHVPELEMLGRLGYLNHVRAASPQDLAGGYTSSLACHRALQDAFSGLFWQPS
T13 sequence (Q02156 whole entry): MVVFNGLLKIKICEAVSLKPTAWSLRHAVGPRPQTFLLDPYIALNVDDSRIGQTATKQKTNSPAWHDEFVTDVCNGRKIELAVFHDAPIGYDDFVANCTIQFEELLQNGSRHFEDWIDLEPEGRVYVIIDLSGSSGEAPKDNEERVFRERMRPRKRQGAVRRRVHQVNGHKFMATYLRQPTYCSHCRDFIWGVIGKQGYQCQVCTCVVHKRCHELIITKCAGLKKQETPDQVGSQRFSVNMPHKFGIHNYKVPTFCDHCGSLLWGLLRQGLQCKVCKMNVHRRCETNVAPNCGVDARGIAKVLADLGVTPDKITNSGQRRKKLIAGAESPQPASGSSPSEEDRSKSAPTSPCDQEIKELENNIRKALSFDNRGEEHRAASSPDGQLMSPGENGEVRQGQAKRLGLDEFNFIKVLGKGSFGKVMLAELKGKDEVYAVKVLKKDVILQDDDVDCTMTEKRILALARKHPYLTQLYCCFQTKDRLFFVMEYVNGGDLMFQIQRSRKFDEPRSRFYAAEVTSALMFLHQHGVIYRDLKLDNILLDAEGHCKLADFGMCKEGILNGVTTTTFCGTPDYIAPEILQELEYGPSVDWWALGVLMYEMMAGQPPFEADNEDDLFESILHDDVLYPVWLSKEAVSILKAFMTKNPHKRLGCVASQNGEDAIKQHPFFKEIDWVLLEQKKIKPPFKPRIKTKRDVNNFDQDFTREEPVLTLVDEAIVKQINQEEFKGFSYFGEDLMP

CC[C@H](Nc1nc(NCc2cnc(C)cc2C)c2ncn(C(C)C)c2n1)[C@@H](C)O [Fadraciclib, 2-pentanol, 3-[[6-[[(4,6-dimethyl-3-pyridinyl)methyl]amino]-9-(1-methylethyl)-9Hpurin-2-yl]amino]-, (2R,3S)]
IC50 (MOLM-13; Homo sapiens, MOLM-13, 72 h, MOLM-13, 72 h continuous, read-out: 72 h continuous IC50 ± SD): 0.24 ± 0.05 µM
IC50 (MOLM-13; Homo sapiens, MOLM-13, read-out: 6 h pulse IC50 ± SD, MOLM-13, 6 h pulse then 66 h release): 0.26 µM
IC90 (MOLM-13; Homo sapiens, MOLM-13, 6 h pulse then 66 h release): 0.4 µM
IC50 (MOLM-13; read-out: 6 h pulse IC50 ± SD, MOLM-13, 6 h pulse then 66 h release): 0.25 ± 0.05 µM
IC50 (OCI-AML2; Homo sapiens, OCI-AML2, 72 h, OCI-AML2, 72 h continuous, read-out: 72 h continuous IC50 ± SD): 0.22 ± 0.03 µM
IC50 (OCI-AML2; Homo sapiens, OCI-AML2, read-out: 6 h pulse IC50 ± SD, OCI-AML2, 6 h pulse then 66 h release): 0.53 µM
IC90 (OCI-AML2; Homo sapiens, OCI-AML2, 6 h pulse then 66 h release): 1.8 µM
IC50 (OCI-AML2; read-out: 6 h pulse IC50 ± SD, OCI-AML2, 6 h pulse then 66 h release): 0.55 ± 0.07 µM
IC50 (THP-1; Homo sapiens, THP-1, 72 h, THP-1, 72 h continuous, read-out: 72 h continuous IC50 ± SD): 0.57 ± 0.18 µM
IC50 (THP-1; Homo sapiens, THP-1, 72 h, THP-1, value the 7 x 7 combination matrix spans, 72 h, read-out: IC50 value of each compound (single agent)): 0.43 µM
IC50 (THP-1; Homo sapiens, THP-1, read-out: 6 h pulse IC50 ± SD, THP-1, 6 h pulse then 66 h release): 1.1 µM
IC90 (THP-1; Homo sapiens, THP-1, 6 h pulse then 66 h release): 6.8 µM
IC50 (THP-1; read-out: 6 h pulse IC50 ± SD, THP-1, 6 h pulse then 66 h release): 1.08 ± 0.23 µM
IC50 (PL21; Homo sapiens, PL-21, 72 h, PL21, 72 h continuous, read-out: 72 h continuous IC50 ± SD): 0.34 ± 0.09 µM
IC90 (PL21; Homo sapiens, PL-21, PL21, 6 h pulse then 66 h release): 9.92 µM
IC50 (PL21; Homo sapiens, PL-21, read-out: 6 h pulse IC50 ± SD, PL21, 6 h pulse then 66 h release): 2.55 µM
IC50 (PL21; read-out: 6 h pulse IC50 ± SD, PL21, 6 h pulse then 66 h release): 2.54 ± 2.71 µM
IC50 (HEL; Homo sapiens, 72 h, 72 h continuous, read-out: 72 h continuous IC50 ± SD): 0.53 ± 0.2 µM
IC50 (HEL; Homo sapiens, read-out: 6 h pulse IC50 ± SD, HEL, 6 h pulse then 66 h release): 5.12 µM
IC50 (HEL; read-out: 6 h pulse IC50 ± SD, 6 h pulse then 66 h release): 5.11 ± 0.88 µM
IC50 (KG-1; Homo sapiens, KG-1, 72 h, KG-1, 72 h continuous, read-out: 72 h continuous IC50 ± SD): 0.35 ± 0.03 µM
IC50 (KG-1; Homo sapiens, KG-1, read-out: 6 h pulse IC50 ± SD, KG-1, 6 h pulse then 66 h release): 0.5 µM
IC90 (KG-1; Homo sapiens, KG-1, 6 h pulse then 66 h release): 3.7 µM
IC50 (KG-1; read-out: 6 h pulse IC50 ± SD, KG-1, 6 h pulse then 66 h release): 0.47 ± 0.12 µM
sensitivity, 6 h pulse versus continuous 72 h (MDA-MB-231): sensitive to fadraciclib only after more prolonged treatment
IC50 (OCI-AML5; Homo sapiens, OCI-AML-5, 72 h, OCI-AML5, 72 h continuous, read-out: 72 h continuous IC50 ± SD): 0.31 ± 0.13 µM
IC90 (OCI-AML5; Homo sapiens, OCI-AML-5, OCI-AML5, 6 h pulse then 66 h release): 18.5 µM
IC50 (OCI-AML5; Homo sapiens, OCI-AML-5, read-out: 6 h pulse IC50 ± SD, OCI-AML5, 6 h pulse then 66 h release): 1.44 µM
IC50 (OCI-AML5; read-out: 6 h pulse IC50 ± SD, OCI-AML5, 6 h pulse then 66 h release): 1.45 ± 0.05 µM
sensitivity, 6 h pulse versus continuous 72 h (A549): sensitive to fadraciclib only after more prolonged treatment
IC50 (CDK2/cyclin E): 0.02 ± 0.001 µM
IC50 (CDK7/cyclin H1/MAT1): 0.73 ± 0.16 µM
IC50 (CDK4/cyclin D3): > 10 µM
inhibition at 1 µM (DYRK1A): 5.5 ± 0.7%
inhibition at 1 µM (PKCi): -13.6 ± 0.5%
inhibition at 1 µM (PDGFRa): 5.8 ± 0.2%
inhibition at 1 µM (BMPR1A): 2.2%
inhibition at 1 µM (FLT3): -8.7 ± 0.1%
inhibition at 1 µM (SRC): 2.7%
inhibition at 1 µM (PDGFRb): 3.2 ± 0.1%
inhibition at 1 µM (BMX): 6.6 ± 0.3%
inhibition at 1 µM (NEK2): -18.1 ± 0.6%
inhibition at 1 µM (PKCe): 7.6 ± 0.1%
inhibition at 1 µM (CK2a1): -22.8 ± 0.7%
inhibition at 1 µM (MAPKAPK5): -14.5 ± 0.2%
number of kinases inhibited >50% (panel of 256 kinases): 9
duration of MCL1 suppression (MCL1): > 24 h
